For assay [1], the target named is T1, Serine/threonine-protein kinase NLK (Homo sapiens) (UniProt Q9UBE8).
T1 sequence (whole entry): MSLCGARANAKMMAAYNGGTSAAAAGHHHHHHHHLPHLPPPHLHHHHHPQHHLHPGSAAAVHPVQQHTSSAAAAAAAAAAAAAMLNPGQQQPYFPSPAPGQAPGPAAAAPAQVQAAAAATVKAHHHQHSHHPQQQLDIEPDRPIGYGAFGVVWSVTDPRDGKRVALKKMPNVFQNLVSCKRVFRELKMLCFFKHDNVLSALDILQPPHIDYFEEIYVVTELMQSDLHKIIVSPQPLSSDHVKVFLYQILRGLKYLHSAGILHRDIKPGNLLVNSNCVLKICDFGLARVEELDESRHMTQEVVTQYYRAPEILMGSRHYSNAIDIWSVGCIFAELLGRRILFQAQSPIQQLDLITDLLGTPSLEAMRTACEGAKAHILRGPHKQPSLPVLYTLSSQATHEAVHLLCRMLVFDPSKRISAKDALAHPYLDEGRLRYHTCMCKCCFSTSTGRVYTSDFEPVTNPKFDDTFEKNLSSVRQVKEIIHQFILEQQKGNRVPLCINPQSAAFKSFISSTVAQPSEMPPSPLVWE
The conditions noted are these: at 10 µM.

For assay [2], the target named is Fibroblast growth factor receptor 2 (Homo sapiens) (UniProt P21802). Nature of the assay: Selectivity interaction (Kinase panel (Invitrogen)) EUB0000639a FGFR2. The conditions noted are these: at 200 nM.
Sequence of Fibroblast growth factor receptor 2 (Homo sapiens) (P21802 22-821 limits assumed): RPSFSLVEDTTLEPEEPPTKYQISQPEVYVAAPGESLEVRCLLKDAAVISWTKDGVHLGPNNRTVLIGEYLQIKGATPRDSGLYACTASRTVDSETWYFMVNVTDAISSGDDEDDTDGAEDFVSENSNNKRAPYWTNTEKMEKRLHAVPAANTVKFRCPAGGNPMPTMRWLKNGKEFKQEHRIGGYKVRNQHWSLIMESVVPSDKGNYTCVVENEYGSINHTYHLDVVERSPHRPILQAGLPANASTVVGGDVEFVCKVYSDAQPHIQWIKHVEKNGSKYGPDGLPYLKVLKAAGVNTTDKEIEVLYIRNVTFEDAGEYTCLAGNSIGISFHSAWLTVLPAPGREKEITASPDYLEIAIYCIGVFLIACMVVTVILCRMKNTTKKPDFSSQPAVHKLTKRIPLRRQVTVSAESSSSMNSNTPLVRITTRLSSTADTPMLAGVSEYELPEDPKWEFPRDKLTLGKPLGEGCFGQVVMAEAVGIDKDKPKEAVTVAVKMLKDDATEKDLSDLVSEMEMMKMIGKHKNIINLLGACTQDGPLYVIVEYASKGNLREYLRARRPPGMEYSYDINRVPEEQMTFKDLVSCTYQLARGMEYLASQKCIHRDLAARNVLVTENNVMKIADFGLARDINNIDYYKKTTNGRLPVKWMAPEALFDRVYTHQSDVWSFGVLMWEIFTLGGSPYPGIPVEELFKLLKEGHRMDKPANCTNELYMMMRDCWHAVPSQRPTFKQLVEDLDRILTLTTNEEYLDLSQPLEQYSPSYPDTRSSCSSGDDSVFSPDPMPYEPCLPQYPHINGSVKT
Assay [3] concerns the target T2, Mitogen-activated protein kinase kinase kinase 15 (Homo sapiens) (UniProt Q6ZN16).
T2 sequence (whole entry): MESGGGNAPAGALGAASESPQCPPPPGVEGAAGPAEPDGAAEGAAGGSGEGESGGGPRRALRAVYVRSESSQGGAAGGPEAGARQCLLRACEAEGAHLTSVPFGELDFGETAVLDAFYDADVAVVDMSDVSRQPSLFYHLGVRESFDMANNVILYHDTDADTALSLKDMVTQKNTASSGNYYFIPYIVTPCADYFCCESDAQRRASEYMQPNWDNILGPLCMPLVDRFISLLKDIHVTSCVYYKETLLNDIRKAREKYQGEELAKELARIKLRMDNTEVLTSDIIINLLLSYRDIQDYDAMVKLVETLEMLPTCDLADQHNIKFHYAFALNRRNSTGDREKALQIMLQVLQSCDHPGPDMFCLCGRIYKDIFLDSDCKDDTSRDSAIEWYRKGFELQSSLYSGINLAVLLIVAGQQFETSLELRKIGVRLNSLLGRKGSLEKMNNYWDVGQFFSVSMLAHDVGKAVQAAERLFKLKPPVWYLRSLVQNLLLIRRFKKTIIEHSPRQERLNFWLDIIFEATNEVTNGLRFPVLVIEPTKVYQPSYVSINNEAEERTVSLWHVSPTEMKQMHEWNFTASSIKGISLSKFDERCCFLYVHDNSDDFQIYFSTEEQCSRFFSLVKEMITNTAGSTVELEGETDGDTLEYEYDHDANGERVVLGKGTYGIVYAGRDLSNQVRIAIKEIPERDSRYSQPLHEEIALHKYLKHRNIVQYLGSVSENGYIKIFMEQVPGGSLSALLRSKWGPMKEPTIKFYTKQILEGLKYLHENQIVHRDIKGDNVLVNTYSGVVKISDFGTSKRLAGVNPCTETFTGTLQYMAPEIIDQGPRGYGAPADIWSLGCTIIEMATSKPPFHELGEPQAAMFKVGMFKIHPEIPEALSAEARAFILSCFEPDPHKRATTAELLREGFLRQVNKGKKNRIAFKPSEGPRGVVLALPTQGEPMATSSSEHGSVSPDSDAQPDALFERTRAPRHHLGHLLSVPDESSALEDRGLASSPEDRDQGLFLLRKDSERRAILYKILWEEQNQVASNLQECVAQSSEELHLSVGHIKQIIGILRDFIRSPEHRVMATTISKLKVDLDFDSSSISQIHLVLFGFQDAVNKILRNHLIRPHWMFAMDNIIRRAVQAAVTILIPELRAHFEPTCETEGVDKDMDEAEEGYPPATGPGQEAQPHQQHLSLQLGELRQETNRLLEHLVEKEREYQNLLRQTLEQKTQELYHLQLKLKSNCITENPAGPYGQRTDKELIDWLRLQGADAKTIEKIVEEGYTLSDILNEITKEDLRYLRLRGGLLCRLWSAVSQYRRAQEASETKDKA
Nature of the assay: Selectivity interaction (KinomeScan (DiscoverX)) EUB0000695a MAP3K15. As to conditions: at 100 nM.

For assay [4], the target named is T3, Ephrin type-A receptor 8 (Homo sapiens) (UniProt P29322).
T3 sequence (whole entry): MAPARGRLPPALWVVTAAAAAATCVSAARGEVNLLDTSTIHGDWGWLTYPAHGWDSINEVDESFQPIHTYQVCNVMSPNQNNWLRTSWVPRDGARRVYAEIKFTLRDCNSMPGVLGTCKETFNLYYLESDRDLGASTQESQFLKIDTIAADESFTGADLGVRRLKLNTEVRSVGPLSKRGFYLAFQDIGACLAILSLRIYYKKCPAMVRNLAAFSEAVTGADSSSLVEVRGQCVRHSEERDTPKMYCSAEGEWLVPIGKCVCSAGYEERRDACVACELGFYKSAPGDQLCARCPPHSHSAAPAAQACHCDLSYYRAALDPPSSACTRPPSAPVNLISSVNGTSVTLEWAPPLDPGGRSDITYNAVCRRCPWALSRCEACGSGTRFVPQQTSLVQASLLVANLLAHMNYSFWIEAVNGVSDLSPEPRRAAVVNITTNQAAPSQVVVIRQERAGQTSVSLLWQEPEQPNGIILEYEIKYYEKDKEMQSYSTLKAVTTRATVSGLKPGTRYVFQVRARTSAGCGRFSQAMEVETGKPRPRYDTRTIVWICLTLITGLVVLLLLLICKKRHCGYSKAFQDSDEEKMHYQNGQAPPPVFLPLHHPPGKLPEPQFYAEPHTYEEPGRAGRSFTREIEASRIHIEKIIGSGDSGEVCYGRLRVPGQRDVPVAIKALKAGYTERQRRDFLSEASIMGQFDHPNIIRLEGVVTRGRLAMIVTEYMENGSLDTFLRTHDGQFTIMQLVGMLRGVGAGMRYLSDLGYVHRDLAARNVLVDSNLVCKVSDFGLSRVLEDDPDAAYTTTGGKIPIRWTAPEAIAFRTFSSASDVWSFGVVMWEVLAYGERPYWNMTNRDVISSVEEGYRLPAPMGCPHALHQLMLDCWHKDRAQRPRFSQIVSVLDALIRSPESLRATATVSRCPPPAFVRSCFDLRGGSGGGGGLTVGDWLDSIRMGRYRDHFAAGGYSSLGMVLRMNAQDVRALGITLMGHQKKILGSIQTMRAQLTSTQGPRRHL
Nature of the assay: Selectivity interaction (ProQinase) EUB0000171b EPHA8.

The target of assay [5] is Tyrosine-protein kinase Fer (Homo sapiens) (UniProt P16591). Nature of the assay: Selectivity interaction (KinomeScan (DiscoverX)) EUB0000618a FER. As to conditions: at 10 µM.
Sequence of Tyrosine-protein kinase Fer (Homo sapiens) (P16591 whole entry, looked up): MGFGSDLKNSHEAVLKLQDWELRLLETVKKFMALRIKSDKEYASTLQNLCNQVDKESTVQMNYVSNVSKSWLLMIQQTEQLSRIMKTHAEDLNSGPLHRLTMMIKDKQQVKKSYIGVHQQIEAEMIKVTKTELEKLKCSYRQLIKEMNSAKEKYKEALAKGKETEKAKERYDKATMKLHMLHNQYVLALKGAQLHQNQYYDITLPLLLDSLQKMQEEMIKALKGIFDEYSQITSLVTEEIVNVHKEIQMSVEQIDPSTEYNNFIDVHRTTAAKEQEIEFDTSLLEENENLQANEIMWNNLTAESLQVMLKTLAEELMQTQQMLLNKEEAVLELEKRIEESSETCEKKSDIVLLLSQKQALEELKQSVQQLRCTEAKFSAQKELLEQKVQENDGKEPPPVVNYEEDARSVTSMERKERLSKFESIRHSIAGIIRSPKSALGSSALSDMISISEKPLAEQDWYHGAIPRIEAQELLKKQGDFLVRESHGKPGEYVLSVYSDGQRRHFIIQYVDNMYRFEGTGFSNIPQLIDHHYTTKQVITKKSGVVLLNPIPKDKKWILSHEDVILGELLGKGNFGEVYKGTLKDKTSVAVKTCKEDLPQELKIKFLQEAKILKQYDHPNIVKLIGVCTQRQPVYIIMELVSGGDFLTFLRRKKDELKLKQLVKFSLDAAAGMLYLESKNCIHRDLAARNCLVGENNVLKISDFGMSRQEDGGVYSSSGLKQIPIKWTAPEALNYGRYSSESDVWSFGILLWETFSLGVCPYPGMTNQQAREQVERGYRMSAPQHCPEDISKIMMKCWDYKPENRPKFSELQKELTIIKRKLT

`Cc1cc([C@@H](C)Nc2ccccc2C(=O)O)c2nc(N3CCOCC3)cc(=O)n2c1` [AZD-6482] gave a % of control in assay [1] of 94%. Consider `CC[C@@H]1[C@H](F)C(=O)N[C@@H]1COc1nccc2cc(C(N)=O)c(OC)cc12` [ZIMLOVISERTIB], for which the % of inhibition in assay [2] is -3.82%. `Cc1cc(F)c(C(=O)Nc2cccc(-c3nncn3C(C)C)n2)cc1-n1cnc(C2CC2)c1` registered a % of control in assay [3] of 66%. With `C=CC(=O)Nc1cccc(C(=O)Nc2ccc(Nc3cc(-c4[nH]c(SC)nc4C)ccn3)cc2)c1`, the % of control stood at 96% in assay [4] (at 1 µM) and 99% in assay [4] (at 5 µM). The molecule `O[C@H]1CC[C@H](Nc2ncc3nc(Nc4c(F)cc(F)cc4F)n([C@H]4CCOC4)c3n2)CC1` came in with a % of control in assay [5] of 100%.

(Values after ChEMBL document CHEMBL5465560, “Selectivity Literature for EUbOPEN Chemogenomic Library” (2024).)
